What is called MIC is the least concentration at which growth counts as inhibited. A word on the melting point: it is the temperature, or range, at which the solid turns liquid. By IC50 is commonly meant the midpoint of a concentration-inhibition curve.

This note sets out measurements from paper PMC9687610, “Adenosine-Mimicking Derivatives of 3-Aminopyrazine-2-Carboxamide: Towards Inhibitors of Prolyl-tRNA Synthetase with Antimycobacterial Activity” (Biomolecules, 2022).

Data set [1] concerns Mycobacterium tuberculosis H37Ra ITM-M006710 (ATCC 9431). In words: Microplate Alamar Blue Assay (MABA), Mtb H37Ra. Format: cell-based. As to conditions: Mycobacterium tuberculosis, 120 h, pH 6.6, MABA, Middlebrook 7H9 broth pH 6.6, resazurin after 120 h; read-out: Mtb H37Ra MIC. On the technique in general: Alamar Blue is a resazurin reagent that responds to reducing activity.

Data set [2] relates to Mycobacterium smegmatis DSM 43465 (ATCC 607). Kind of data set: Microplate Alamar Blue Assay (MABA), M. smegmatis. The data set is classed as cell-based. To be noted: Mycolicibacterium smegmatis, read-out: M. smegmatis MIC.
In data set [3] the test system is M. aurum DSM 43999 (ATCC 23366). Kind of data set: Microplate Alamar Blue Assay (MABA), M. aurum. Format: cell-based. As to conditions: Mycolicibacterium aurum, read-out: M. aurum MIC.
Data set [4] relates to Staphylococcus aureus subsp. aureus CCM 4223 (ATCC 29213). In words: Antibacterial microdilution broth (EUCAST), SA. The data set is classed as cell-based. As to conditions: Staphylococcus aureus, read-out: SA MIC. On the technique in general: In broth dilution the organism is exposed to a series of concentrations in liquid medium.
Data set [5] has as its system Staphylococcus aureus subsp. aureus methicillin-resistant (MRSA) CCM 4750 (ATCC 43300). Kind of data set: Antibacterial microdilution broth (EUCAST), MRSA. Format: cell-based. As to conditions: Staphylococcus aureus, read-out: MRSA MIC.
Data set [6] has as its system Staphylococcus epidermidis CCM 4418 (ATCC 12228). In words: Antibacterial microdilution broth (EUCAST), SE. As to conditions: read-out: SE MIC. Format: cell-based.
The subject of data set [7] is Enterococcus faecalis CCM 4224 (ATCC 29212). Kind of data set: Antibacterial microdilution broth (EUCAST), EF. The data set is classed as cell-based. To be noted: Enterococcus faecalis, read-out: EF MIC.
In data set [8] the test system is Escherichia coli CCM 3954 (ATCC 25922). Kind of data set: Antibacterial microdilution broth (EUCAST), EC. The data set is classed as cell-based. As to conditions: Escherichia coli, read-out: EC MIC.
Data set [9] has as its system Acinetobacter baumannii DSM 30007 (ATCC 19606). Kind of data set: Antibacterial microdilution broth (EUCAST), ACI. Format: cell-based. To be noted: Acinetobacter baumannii, read-out: ACI MIC.
Data set [10] concerns Pseudomonas aeruginosa CCM 3955 (ATCC 27853). Kind of data set: Antibacterial microdilution broth (EUCAST), PA. The data set is classed as cell-based. To be noted: Pseudomonas aeruginosa, read-out: PA MIC.
In data set [11] the test system is Candida albicans CCM 8320 (ATCC 24433). In words: Antifungal microdilution broth (EUCAST), CA. The data set is classed as cell-based. To be noted: Candida albicans, read-out: CA MIC.
Data set [12] concerns Candida krusei CCM 8271 (ATCC 6258). In words: Antifungal microdilution broth (EUCAST), CK. The data set is classed as cell-based. To be noted: Pichia kudriavzevii, read-out: CK MIC.
The test system of data set [13] is Candida parapsilosis CCM 8260 (ATCC 22019). Kind of data set: Antifungal microdilution broth (EUCAST), CP. The data set is classed as cell-based. As to conditions: Lodderomyces parapsilosis, read-out: CP MIC.
In data set [14] the test system is Candida tropicalis CCM 8264 (ATCC 750). Kind of data set: Antifungal microdilution broth (EUCAST), CT. The data set is classed as cell-based. As to conditions: Candida tropicalis, read-out: CT MIC.
Data set [15] concerns Aspergillus fumigatus ATCC 204305. Kind of data set: Antifungal microdilution broth (EUCAST), AF. Format: cell-based. As to conditions: Aspergillus fumigatus, read-out: AF MIC.
In data set [16] the test system is Aspergillus flavus CCM 8363. Kind of data set: Antifungal microdilution broth (EUCAST), AFla. Format: cell-based. To be noted: Aspergillus flavus, read-out: AFla MIC.
The test system of data set [17] is Lichtheimia corymbifera CCM 8077. In words: Antifungal microdilution broth (EUCAST), LC. The data set is classed as cell-based. To be noted: Lichtheimia corymbifera, read-out: LC MIC.
The subject of data set [18] is Trichophyton interdigitale CCM 8377 (ATCC 9533). In words: Antifungal microdilution broth (EUCAST), TI. Format: cell-based. As to conditions: Trichophyton interdigitale, 72 h, read-out: TI MIC.
Data set [19] concerns Klebsiella pneumoniae CCM 4415 (ATCC 10031). In words: Antibacterial microdilution broth (EUCAST), KP. To be noted: read after 24 h.
Data set [20] relates to HepG2 human hepatocellular carcinoma cells. In words: In vitro HepG2 cytotoxicity (CellTiter 96). To be noted: Homo sapiens, HepG2, 24 h, read-out: HepG2 IC50, 24 h incubation; * limit = highest evaluated concentration (precipitation in medium); ** over the 1000 µM limit.

In brackets after ≈: the same amount, converted by molar mass. Where two headings read alike, the source gives them in different places. Bounds are passed on as bounds.

On to `COC(=O)c1nccnc1NC(=O)c1ccccc1Br` [Compound 16e], for which the melting point was 168.4 to 169.2 °C. Besides, the MIC in data set [1] is 125 µg/mL (≈ 372 µM). In addition, the MIC in data set [2] (MABA, resazurin after 48 h) is no less than 500 µg/mL. Besides, in data set [3] (MABA, resazurin after 72 h), the MIC was no less than 500 µg/mL. Besides, in data set [4] (read after 24 h), the MIC was greater than 500 µM. In addition, the MIC in data set [5] (read after 24 h) is greater than 500 µM. The MIC in data set [6] (read after 24 h) is greater than 500 µM. The MIC in data set [7] (read after 24 h) was greater than 500 µM. Moreover, the MIC in data set [8] (read after 24 h) is greater than 500 µM. The MIC in [9] (read after 24 h) was greater than 500 µM. In addition, the MIC in data set [10] (read after 24 h) is greater than 500 µM. Further, in [11] (read after 24 h), the MIC is greater than 500 µM. Besides, the MIC in data set [12] (read after 24 h) was greater than 500 µM. The MIC in data set [13] (read after 24 h) was greater than 500 µM. The MIC in data set [14] (read after 24 h) was greater than 500 µM. The MIC in data set [15] (ATCC204305, read after 24 h) was greater than 500 µM. Further, in [16] (CCM8363, read after 24 h), the MIC is greater than 500 µM. The MIC in data set [17] (CCM8077, read after 24 h) was greater than 500 µM. Also, the MIC in [18] was greater than 500 µM. The “KP MIC” value in data set [19] is on record as greater than 500 µM.

The compound `COC(=O)c1nccnc1NC(=O)c1cccc(Br)c1` [Compound 17e] returned a melting point of 123.3 to 125.2 °C. In [1], the MIC is no less than 500 µg/mL. Moreover, the MIC in data set [2] (MABA, resazurin after 48 h) is no less than 500 µg/mL. Further, the MIC in data set [3] (MABA, resazurin after 72 h) was no less than 500 µg/mL. For the same compound, the MIC in [4] (read after 24 h) was greater than 500 µM. The MIC in [5] (read after 24 h) is greater than 500 µM. Moreover, the MIC in [6] (read after 24 h) was greater than 500 µM. Besides, the MIC in data set [7] (read after 24 h) is greater than 500 µM. Further, in data set [8] (read after 24 h), the MIC was greater than 500 µM. Also, the MIC in [9] (read after 24 h) is greater than 500 µM. Further, the MIC in [10] (read after 24 h) was greater than 500 µM. Further, in [11] (read after 24 h), the MIC is greater than 500 µM. Further, the MIC in data set [12] (read after 24 h) is greater than 500 µM. Moreover, the minimum inhibitory concentration (MIC) in data set [13] (read after 24 h) was greater than 500 µM. The MIC in [14] (read after 24 h) was greater than 500 µM. The MIC in [15] (ATCC204305, read after 24 h) is greater than 500 µM. In addition, in data set [16] (CCM8363, read after 24 h), the MIC is greater than 500 µM. The MIC in data set [17] (CCM8077, read after 24 h) is greater than 500 µM. In addition, the MIC in data set [18] is greater than 500 µM. Further, the “KP MIC” value in data set [19] is greater than 500 µM.

In the case of `COC(=O)c1nccnc1NC(=O)C12CC3CC(CC(C3)C1)C2` [Compound 28e], the melting point lay in the range of 225.6 to 227.2 °C. In addition, in data set [1], the MIC is no less than 125 µg/mL. In [2] (48 h), the MIC is no less than 125 µg/mL. In data set [3] (72 h), the MIC is no less than 125 µg/mL. In addition, the MIC in [4] (24 h) is greater than 125 µM. For the same compound, the MIC in data set [5] (24 h) was greater than 125 µM. The MIC in data set [6] (24 h) was greater than 125 µM. Further, the MIC in [7] (24 h) is greater than 125 µM. In addition, the MIC in data set [8] (24 h) was greater than 125 µM. The MIC in [9] (24 h) is greater than 125 µM. Further, the MIC in [10] (24 h) was greater than 125 µM. The MIC in data set [11] (24 h) was greater than 125 µM. In data set [12] (24 h), the MIC was greater than 125 µM. The MIC in data set [13] (24 h) was greater than 125 µM. Besides, in data set [14] (24 h), the MIC was greater than 125 µM. Further, the MIC in [15] (ATCC204305, 24 h) is greater than 125 µM. Further, the MIC in data set [16] (CCM8363, 24 h) is greater than 125 µM. Further, in data set [17] (CCM8077, 24 h), the MIC was greater than 125 µM. In addition, the MIC in data set [18] is greater than 125 µM. Besides, in data set [19], the “KP MIC” value is greater than 125 µM.

For the compound `NC(=O)c1nccnc1NC(=O)c1ccc(N)cc1` [Compound 24, 3-(4-aminobenzamido)pyrazine-2-carboxamide], the melting point is greater than 300 °C. For the same compound, the MIC in data set [1] was 125 µg/mL (≈ 486 µM). In data set [2] (MABA, resazurin after 48 h), the MIC was no less than 250 µg/mL. For the same compound, in [3] (MABA, resazurin after 72 h), the MIC is no less than 250 µg/mL. In data set [20], the IC50 was 929 µM.
